Key:
PMP22 mRNA = PMP22 mRNA level by quantitative RT-PCR after drug stimulation of rat Schwann cell primary culture; type: cell-based; parameters: key: +: significantly decreases PMP22 levels compared to control; details: rat primary Schwann cells, drug incubation 24 hrs
Method: After cells being platted in 12 well-dishes, the medium is replaced by a defined medium consisting in a mix of DMEM-F12 (Invitrogen #21331020) complemented by 1% of N2 supplement (Invitrogen #17502), 1% L-Glutamine (Invitrogen #25030024) 2.5% FBS (Sciencell #0025), 0.02 μg/ml of corticosterone (Sigma #C2505), 4 μM Forskolin and 50 μg/ml of gentamycin. Growth factors are not added to this medium, to promote SC differentiation
24 hours later, the medium is replaced by a defined medium (DMEM-F12) complemented with 1% Insulin-Transferrin-Selenium-X (ITS, Invitrogen #51300), 16 μg/ml of Putrescine (Sigma #P5780), 0.02 μg/ml of corticosterone and 50 μg/ml of gentamicin. At this step, neither progesterone nor forskolin are present in the medium.
One day later, Schwann cells are stimulated by combinations of drugs or drugs alone during 24 hrs (3 wells/condition). The preparation of each compound is performed just prior to its addition to the cell culture medium.
Drugs are added to a defined medium composed of DMEM-F12, with 1% Insulin-Transferrin-Selenium-X (ITS, Invitrogen #51300), 16 μg/ml of Putrescine, 0.02 μg/ml of corticosterone, 10 nM Progesterone and 50 μg/ml of gentamicin. The absence of Forskolin during drug stimulation avoids adenylate cyclase saturation.
Quantitative RT-PCR is used to compare the levels of PMP22 mRNA after drug stimulation, relative with housekeeping Ribosomal L13A mRNA in rat Schwann cell primary culture.
After rinsing with cold sterilized PBS, total RNAs from each cell sample are extracted and purified from SC using the Qiagen RNeasy micro kit (Qiagen #74004). Nucleic acids are quantified by Nanodrop spectrophotometer using 1 μl of RNA sample. The RNA integrity is determined through a BioAnalyzer (Agilent) apparatus.
RNAs are reverse-transcribed into cDNA according to standard protocol. cDNA templates for PCR amplification are synthesized from 200 ng of total RNA using SuperScript II reverse-transcriptase (Invitrogen #18064-014) for 60 min at 42° C. in the presence of oligo(dT), in a final volume of 20 μl.
cDNAs are subjected to PCR amplification using the ? LightCycler® 480 ? system (Roche Molecular Systems Inc.) Each cDNA are diluted five times before being used for PCR amplification. 2.5 μl of this cDNAs enters the PCR reaction solution (final volume of 10 μl). Preliminary experiments ensured that quantitation was done in the exponential phase of the amplification process for both sequences and that expression of the reference gene was uniform in the different culture conditions.
PCR reaction is performed by amplification of 500 nM of forward primer of rat PMP22 (NM_017037), 5-GGAAACGCGAATGAGGC-3 (SEQ ID NO: 1), and 500 nM of reverse primer 5-GTTCTGTTTGGTTTGGCTT-3 (SEQ ID NO: 2) (amplification of 148-bp). A 152-bp fragment of the RPL13A ribosomal (NM_173340) RNA is amplified in parallel in separate reactions for normalization of the results by using 500 nM of forward primer 5-CTGCCCTCAAGGTTGTG-3 (SEQ ID NO: 3), and 500 nM of reverse primer 5-[…]-3 (SEQ ID NO: 4).
We used FRET chemistry to perform RT-Q-PCR analysis. FRET probes are composed of 0.3 μM of Pmp22-FL-5-[…] (SEQ ID NO: 5) or Rpl13A-FL-5-TCGGGTGGAAGTACCAGCC (SEQ ID NO: 6), labelled at their 3′ end with a donor fluorophore dye (Fluorescein). 0.15 μM Red640 probes are defined as follows: Pmp22-red-5′-[…]- (SEQ ID NO: 7) or Rpl13A-red-5′-[…] (SEQ ID NO: 8), labelled at their 5′ end with an acceptor fluorophore dye (Rhodamine Red 640).
Each PCR reaction contained 2.5 μl cDNA template in a final volume of 10 μl of master mix kit (Roche #04-887301001).
The following PCR conditions are used: 10 sec at 95° C., 10 sec at 63° C. and 12 sec at 72° C. and 30 sec at 40° C. (Forty amplification cycles). The relative levels of PMP22 gene expression is measured by determining the ratio between the products generated from the target gene PMP22 and the endogenous internal standard RPL13A. […]

PMP22 protein = PMP22 protein expression analysis by flow cytometry (FACS) in Schwann cells; type: cell-based, rat; parameters: key to Protein (PMP22 expression decrease): +: significantly decreases PMP22 levels compared to control; details: rat primary Schwann cells, FACS, 24 hrs
Method: One day later, Schwann cells are stimulated by combinations of drugs or drugs alone during 24 hrs (3 wells/condition). The preparation of each compound is performed just prior to its addition to the cell culture medium. Drugs are added to a defined medium composed of DMEM-F12, with 1% Insulin-Transferrin-Selenium-X (ITS, Invitrogen #51300), 16 μg/ml of Putrescine, 0.02 μg/ml of corticosterone, 10 nM Progesterone and 50 μg/ml of gentamicin. The absence of Forskolin during drug stimulation avoids adenylate cyclase saturation. 8 hrs, 24 hrs and 48 hrs after drugs incubation, supernatants are recovered, centrifuged and frozen. SC are detached with trypsin-EDTA. As soon as the majority of cells are in suspension, the trypsin is neutralised using DMEM with 10% FCS. Supernatants with cells are recovered and centrifuged. The pellets of cells are transferred in micro tubes, washed in PBS once and fixed with a specific solution (AbCys #Reagent A BUF09B). 10 minutes later, cells are rinsed once with PBS and kept at 4° C. Five days after cell fixation, all cell preparations with different incubation times are labelled using the following protocol. […] Cells are then centrifuged at 7000 rpm for 5 minutes and cell pellets are rinsed once in PBS. A secondary antibody is added, coupled to Alexa Fluor 488 (goat anti-rabbit IgG, Molecular Probes #A11008, 1/100), for one hour at room temperature. Cells are then centrifuged at 7000 rpm for 5 minutes and cell pellets are rinsed once in PBS. The labelling is increased adding a tertiary antibody coupled to Alexa Fluor 488 (chicken anti-goat IgG, Molecular Probes #A21467, 1/100) for one hour incubation, at room temperature. Cells are then rinsed once in PBS. Control without any antibody (unlabelled cells) is performed to determine the level of autofluorescence and adapted the sensitivity of the photomultiplicators. Control with both secondary and tertiary antibodies but without primary antibody, is performed to assess non specific binding of antibodies. Data acquisition and analysis are performed with a FACS Array cytometer and FACS Array software (Becton Dickinson) on 5000 cells. Forward Scatter (FSC) correlated with cell volume (size) and Side Scatter (SSC) depending on inner complexity of cells (granularity) are analysed. For expression of PMP22, analysis is performed within the total cells and percent of positive cells is calculated. Positive cells are cells with fluorescence intensity higher than the control with secondary antibody. We tested the ability of some drugs to inhibit PMP22 protein expression (FACS analysis). […] The results of the action of some individual drugs on the protein level of PMP22 are also shown on table 1 above.

PMP22 = details: transgenic rodent models with over expression of PMP22; cited from earlier work

NCC(CC(=O)O)c1ccc(Cl)cc1 (stereo not drawn) [Baclofen]
mRNA (PMP22 expression decrease) (PMP22 mRNA): +

O=C(O)Cc1ccccc1Nc1c(Cl)cccc1Cl [Diclofenac]
mRNA (PMP22 expression decrease) (PMP22 mRNA): + | Protein (PMP22 expression decrease) (PMP22 protein): +

CCN(CC)C(=S)SSC(=S)N(CC)CC [Disulfiram]
mRNA (PMP22 expression decrease) (PMP22 mRNA): +

C[C@]12CC[C@@H]3c4ccc(O)cc4CC[C@H]3[C@@H]1CC[C@@H]2O [Estradiol-b, Estradiol]
mRNA (PMP22 expression decrease) (PMP22 mRNA): +

CC(C)OC(=O)C(C)(C)Oc1ccc(C(=O)c2ccc(Cl)cc2)cc1 [Fenofibrate]
mRNA (PMP22 expression decrease) (PMP22 mRNA): +

CC(C(=O)O)c1ccc(-c2ccccc2)c(F)c1 (stereo not drawn) [Flurbiprofen]
mRNA (PMP22 expression decrease) (PMP22 mRNA): + | Protein (PMP22 expression decrease) (PMP22 protein): +

O=C(CCCN1CCC(O)(c2ccc(Cl)cc2)CC1)c1ccc(F)cc1 [Haloperidol]
mRNA (PMP22 expression decrease) (PMP22 mRNA): +

COc1ccc2c(c1)c(CC(=O)O)c(C)n2C(=O)c1ccc(Cl)cc1 [Indomethacin]
mRNA (PMP22 expression decrease) (PMP22 mRNA): + | Protein (PMP22 expression decrease) (PMP22 protein): +

CC(C)NCC(O)c1ccc(O)c(O)c1 (stereo not drawn) [Isoproterenol]
mRNA (PMP22 expression decrease) (PMP22 mRNA): +

CC(C(=O)O)c1cccc(C(=O)c2ccccc2)c1 (stereo not drawn) [Ketoprofen]
mRNA (PMP22 expression decrease) (PMP22 mRNA): + | Protein (PMP22 expression decrease) (PMP22 protein): +

Cc1cnc(NC(=O)C2=C(O)c3ccccc3S(=O)(=O)N2C)s1 [Meloxicam]
mRNA (PMP22 expression decrease) (PMP22 mRNA): + | Protein (PMP22 expression decrease) (PMP22 protein): +

CC#C[C@]1(O)CC[C@H]2[C@@H]3CCC4=CC(=O)CCC4=C3[C@@H](c3ccc(N(C)C)cc3)C[C@@]21C [Mifepristone]
mRNA (PMP22 expression decrease) (PMP22 mRNA): +

CC(C)(O)c1ccccc1CC[C@@H](SCC1(CC(=O)O)CC1)c1cccc(/C=C/c2ccc3ccc(Cl)cc3n2)c1 [Montelukast]
mRNA (PMP22 expression decrease) (PMP22 mRNA): +

O=C1CC[C@@]2(O)[C@H]3Cc4ccc(O)c5c4[C@@]2(CCN3CC2CC2)[C@H]1O5 [Naltrexone]
mRNA (PMP22 expression decrease) (PMP22 mRNA): +

CCC(C)(C)C(=O)O[C@H]1C[C@@H](C)C=C2C=C[C@H](C)[C@H](CC[C@@H]3C[C@@H](O)CC(=O)O3)[C@H]21 [Simvastatin]
mRNA (PMP22 expression decrease) (PMP22 mRNA): +

OC[C@@H](O)[C@@H](O)[C@H](O)[C@@H](O)CO [Sorbitol, D-Sorbitol]
mRNA (PMP22 expression decrease) (PMP22 mRNA): +

C[C@]12CC[C@H]3[C@@H](CC[C@@]45O[C@@H]4C(O)=C(C#N)C[C@]35C)[C@@H]1CC[C@@H]2O [Trilostane]
mRNA (PMP22 expression decrease) (PMP22 mRNA): +

O=C1O[C@H]([C@@H](O)CO)C(O)=C1O [ascorbic acid]
PMP22 expression in the transgenic animals (PMP22): decreased this expression

CN(C)c1ccc([C@H]2C[C@]3(C)[C@@H](CC[C@]3(O)CCCO)[C@@H]3CCC4=CC(=O)CCC4=C32)cc1 [onapristone]
PMP22 expression in the transgenic animals (PMP22): decreased this expression
